Data set [1] can be described thus: Microsomal stability assay in human liver microsomes. Particulars: pH 7.4. In kind it is in vitro ADME.
In data set [2] the test system is female Sprague-Dawley rats. As to the kind of experiment: Orofacial formalin test without nitroglycerin. In kind it is in vivo, rat. Particulars: 3 mg/kg i.p. 30 min before formalin, no nitroglycerin pretreatment.
Another data set addresses Delta opioid (DOR) (Homo sapiens, UniProt P41143). The experiment in a line: NIMH PDSP primary binding screen, DOR. The note with it: read-out: Inhibition (%) Delta opioid (DOR).
A further data set deals with T1, Rat sEH (Rattus norvegicus, UniProt P80299).
T1 sequence (P80299 1-554): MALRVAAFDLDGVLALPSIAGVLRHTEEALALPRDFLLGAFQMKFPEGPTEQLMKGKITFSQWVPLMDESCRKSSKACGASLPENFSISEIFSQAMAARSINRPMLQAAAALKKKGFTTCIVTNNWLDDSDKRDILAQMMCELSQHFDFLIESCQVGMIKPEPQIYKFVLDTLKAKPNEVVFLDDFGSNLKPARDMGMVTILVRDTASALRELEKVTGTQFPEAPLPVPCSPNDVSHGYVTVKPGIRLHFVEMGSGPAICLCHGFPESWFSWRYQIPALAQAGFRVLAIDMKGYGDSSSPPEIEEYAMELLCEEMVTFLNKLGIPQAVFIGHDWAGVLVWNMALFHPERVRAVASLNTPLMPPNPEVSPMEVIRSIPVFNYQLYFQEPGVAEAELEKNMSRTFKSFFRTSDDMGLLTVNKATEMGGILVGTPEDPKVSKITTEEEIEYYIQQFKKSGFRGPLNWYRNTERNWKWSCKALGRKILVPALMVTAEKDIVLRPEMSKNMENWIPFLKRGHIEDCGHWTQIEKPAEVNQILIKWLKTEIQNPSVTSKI
As to the kind of experiment: sEH fluorescent-based inhibition assay. The class given is biochemical.

The next data set has as its target 5-HT1B (Homo sapiens, UniProt P28222). As to the kind of experiment: NIMH PDSP primary binding screen, 5-HT1B. Particulars: read-out: Inhibition (%) 5-HT1B.
For another data set, the target named is T2, 5-HT2C (Homo sapiens, UniProt P28335).
T2 sequence (P28335 33-458): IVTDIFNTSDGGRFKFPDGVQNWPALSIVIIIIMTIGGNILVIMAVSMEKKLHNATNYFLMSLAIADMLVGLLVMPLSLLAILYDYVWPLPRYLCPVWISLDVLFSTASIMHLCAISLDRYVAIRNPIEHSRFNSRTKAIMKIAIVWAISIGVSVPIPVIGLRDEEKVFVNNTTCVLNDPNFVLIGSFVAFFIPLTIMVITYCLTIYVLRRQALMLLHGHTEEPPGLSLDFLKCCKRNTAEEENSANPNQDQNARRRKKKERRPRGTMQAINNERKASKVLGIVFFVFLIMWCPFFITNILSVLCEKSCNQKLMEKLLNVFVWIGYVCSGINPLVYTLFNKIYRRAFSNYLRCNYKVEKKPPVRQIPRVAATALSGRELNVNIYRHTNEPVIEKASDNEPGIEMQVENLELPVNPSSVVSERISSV
The experiment in a line: NIMH PDSP primary binding screen, 5-HT2C. Particulars: read-out: Inhibition (%) 5-HT2C.

Another data set has as its target Kappa opioid (KOR) (Homo sapiens, UniProt P41145). The experiment in a line: NIMH PDSP primary binding screen, KOR. The note with it: read-out: Inhibition (%) Kappa opioid (KOR).
For another data set, the target named is 5-HT1D (Homo sapiens, UniProt P28221). The experiment in a line: NIMH PDSP primary binding screen, 5-HT1D. Particulars: read-out: Inhibition (%) 5-HT1D.
A short description of the next data set: physchem. Particulars: sodium phosphate buffer, 24 °C, pH 7.4, aqueous buffer, kinetic from dmso stock.
For the next data set, the target named is 5-HT2A (Homo sapiens, UniProt P28223). The experiment in a line: NIMH PDSP primary binding screen, 5-HT2A. The note with it: read-out: Inhibition (%) 5-HT2A.
In the next data set the target is T3, 5-HT1A (Homo sapiens, UniProt P08908).
T3 sequence (P08908 1-422): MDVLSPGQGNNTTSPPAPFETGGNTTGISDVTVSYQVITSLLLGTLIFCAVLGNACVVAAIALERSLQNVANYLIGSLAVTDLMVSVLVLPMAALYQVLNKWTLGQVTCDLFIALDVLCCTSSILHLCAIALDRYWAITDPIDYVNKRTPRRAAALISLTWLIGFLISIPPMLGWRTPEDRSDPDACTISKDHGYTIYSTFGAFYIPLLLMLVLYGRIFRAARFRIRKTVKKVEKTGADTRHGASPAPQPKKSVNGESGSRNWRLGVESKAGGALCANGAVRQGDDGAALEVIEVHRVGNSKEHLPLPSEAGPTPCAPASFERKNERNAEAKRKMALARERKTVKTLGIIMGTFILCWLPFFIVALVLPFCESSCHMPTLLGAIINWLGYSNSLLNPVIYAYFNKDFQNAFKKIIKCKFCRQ
The experiment in a line: NIMH PDSP primary binding screen, 5-HT1A. The note with it: read-out: Inhibition (%) 5-HT1A.

The nature of data set [3]: Microsomal stability assay in rat liver microsomes. In kind it is in vitro ADME. The note with it: pH 7.4. In general terms: Microsomes from liver hold many membrane-bound enzymes, among them those of drug oxidation.
In the next data set the target is Mu opioid (MOR) (Homo sapiens, UniProt P35372). The experiment in a line: NIMH PDSP primary binding screen, MOR. The note with it: read-out: Inhibition (%) Mu opioid (MOR).
The next data set addresses T4, Mouse sEH (Mus musculus, UniProt P34914).
T4 sequence (P34914 1-554): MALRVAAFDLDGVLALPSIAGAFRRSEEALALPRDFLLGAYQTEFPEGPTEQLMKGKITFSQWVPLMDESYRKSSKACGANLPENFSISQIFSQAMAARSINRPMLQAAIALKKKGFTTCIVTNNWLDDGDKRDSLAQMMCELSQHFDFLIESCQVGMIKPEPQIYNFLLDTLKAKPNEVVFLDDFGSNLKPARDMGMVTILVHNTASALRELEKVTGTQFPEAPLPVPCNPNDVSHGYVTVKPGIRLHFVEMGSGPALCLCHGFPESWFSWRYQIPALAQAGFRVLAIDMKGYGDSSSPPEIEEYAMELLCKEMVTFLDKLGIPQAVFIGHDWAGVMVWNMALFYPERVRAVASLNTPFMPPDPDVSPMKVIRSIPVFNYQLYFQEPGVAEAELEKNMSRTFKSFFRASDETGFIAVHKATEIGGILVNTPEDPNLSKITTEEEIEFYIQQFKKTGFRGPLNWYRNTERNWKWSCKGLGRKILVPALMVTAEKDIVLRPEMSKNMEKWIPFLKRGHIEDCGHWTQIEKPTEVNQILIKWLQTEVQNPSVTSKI
The experiment in a line: sEH fluorescent-based inhibition assay. In kind it is biochemical.

In brackets after ≈: the same amount, converted by molar mass.

Chain of 5-HT2A (P28223 whole entry, species assumed): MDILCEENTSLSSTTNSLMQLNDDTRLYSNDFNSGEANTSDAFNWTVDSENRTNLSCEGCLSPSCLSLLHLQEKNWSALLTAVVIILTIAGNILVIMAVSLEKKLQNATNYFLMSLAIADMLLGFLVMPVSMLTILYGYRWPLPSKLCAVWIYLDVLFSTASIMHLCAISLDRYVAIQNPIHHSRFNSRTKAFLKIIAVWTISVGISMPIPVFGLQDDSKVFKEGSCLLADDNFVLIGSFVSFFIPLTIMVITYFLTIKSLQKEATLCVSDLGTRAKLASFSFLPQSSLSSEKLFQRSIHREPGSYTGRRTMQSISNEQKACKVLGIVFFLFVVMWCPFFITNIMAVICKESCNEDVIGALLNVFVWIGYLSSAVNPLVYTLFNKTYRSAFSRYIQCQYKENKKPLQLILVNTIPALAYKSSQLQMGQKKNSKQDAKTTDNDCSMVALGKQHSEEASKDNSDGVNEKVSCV
Chain of 5-HT1D (P28221 whole entry, species assumed): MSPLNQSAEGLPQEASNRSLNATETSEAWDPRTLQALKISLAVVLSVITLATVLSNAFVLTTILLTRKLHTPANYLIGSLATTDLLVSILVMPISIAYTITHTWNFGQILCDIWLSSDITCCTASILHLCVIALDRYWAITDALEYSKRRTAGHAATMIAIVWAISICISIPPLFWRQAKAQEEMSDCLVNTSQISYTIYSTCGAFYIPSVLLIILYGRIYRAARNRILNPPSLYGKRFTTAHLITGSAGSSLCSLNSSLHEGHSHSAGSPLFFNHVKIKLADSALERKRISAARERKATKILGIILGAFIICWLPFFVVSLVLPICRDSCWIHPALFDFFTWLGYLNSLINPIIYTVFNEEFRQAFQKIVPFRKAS
Chain of Delta opioid (DOR) (P41143 whole entry): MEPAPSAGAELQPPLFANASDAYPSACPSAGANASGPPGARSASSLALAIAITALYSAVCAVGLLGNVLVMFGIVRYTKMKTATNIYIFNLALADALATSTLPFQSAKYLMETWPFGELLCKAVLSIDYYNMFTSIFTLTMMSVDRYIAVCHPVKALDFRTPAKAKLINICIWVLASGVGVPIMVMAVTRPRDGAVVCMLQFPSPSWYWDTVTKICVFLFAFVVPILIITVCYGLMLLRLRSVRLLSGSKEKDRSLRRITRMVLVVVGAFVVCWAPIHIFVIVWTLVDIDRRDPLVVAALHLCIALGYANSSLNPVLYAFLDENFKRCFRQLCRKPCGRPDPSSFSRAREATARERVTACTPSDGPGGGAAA
Chain of Kappa opioid (KOR) (P41145 whole entry): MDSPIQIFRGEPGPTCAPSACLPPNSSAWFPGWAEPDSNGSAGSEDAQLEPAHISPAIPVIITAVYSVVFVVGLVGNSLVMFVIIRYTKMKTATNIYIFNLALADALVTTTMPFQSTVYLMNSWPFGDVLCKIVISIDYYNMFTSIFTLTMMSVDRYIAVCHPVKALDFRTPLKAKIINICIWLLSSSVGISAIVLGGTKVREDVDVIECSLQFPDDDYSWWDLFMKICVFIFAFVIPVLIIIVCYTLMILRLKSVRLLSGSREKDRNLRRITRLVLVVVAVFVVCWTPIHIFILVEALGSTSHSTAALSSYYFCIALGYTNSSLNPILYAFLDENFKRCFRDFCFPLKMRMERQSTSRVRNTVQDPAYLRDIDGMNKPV
Chain of 5-HT1B (P28222 whole entry, species assumed): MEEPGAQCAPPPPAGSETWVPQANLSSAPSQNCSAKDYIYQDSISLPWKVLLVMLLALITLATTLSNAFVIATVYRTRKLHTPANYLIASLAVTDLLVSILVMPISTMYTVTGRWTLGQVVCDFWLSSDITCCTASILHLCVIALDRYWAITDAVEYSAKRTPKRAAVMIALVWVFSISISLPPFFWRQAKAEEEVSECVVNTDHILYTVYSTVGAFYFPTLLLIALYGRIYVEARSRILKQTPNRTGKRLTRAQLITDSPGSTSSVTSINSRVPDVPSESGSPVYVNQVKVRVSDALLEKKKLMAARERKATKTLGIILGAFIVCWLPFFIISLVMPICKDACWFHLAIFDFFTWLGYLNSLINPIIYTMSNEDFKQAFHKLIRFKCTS
Chain of Mu opioid (MOR) (P35372 whole entry): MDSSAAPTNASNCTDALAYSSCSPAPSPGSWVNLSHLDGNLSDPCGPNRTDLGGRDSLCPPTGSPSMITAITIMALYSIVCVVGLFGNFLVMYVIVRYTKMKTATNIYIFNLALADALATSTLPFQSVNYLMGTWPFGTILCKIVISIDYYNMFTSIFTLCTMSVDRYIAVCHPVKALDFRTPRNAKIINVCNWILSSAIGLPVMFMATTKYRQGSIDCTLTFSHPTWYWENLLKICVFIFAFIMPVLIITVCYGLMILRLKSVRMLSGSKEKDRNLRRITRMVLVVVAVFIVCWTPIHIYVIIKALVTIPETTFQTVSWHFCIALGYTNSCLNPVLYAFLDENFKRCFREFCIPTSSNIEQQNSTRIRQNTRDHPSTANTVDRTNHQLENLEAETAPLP

Turning to `O=C(Nc1ccc(-c2ccc3ccncc3c2)cc1)C1CCN(S(=O)(=O)c2ccccc2Cl)CC1` [Compound 4f, 1-((2-chlorophenyl)sulfonyl)-N-(4-(isoquinolin-7-yl)phenyl)piperidine-4-carboxamide], the half-life at 1 µM in data set [1] was determined as 58 min; in [3] it was 25.6 min. The microsomal CLint at 1 µM in data set [1] was 23.7 µL/min/mg; in [3], 54 µL/min/mg. The “Time spent rubbing the injected area vs vehicle” value in [2] was “no significant difference”. For the same molecule, the inhibition at 10 µM was 3.1 ± 1.53% on Delta opioid (DOR); 12.4 ± 2.29% at 5-HT1B; 21.5 ± 4.63% on 5-HT2C; -18.1 ± 2.56% at Kappa opioid (KOR); 40.9 ± 11.2% at 5-HT1D; 17.4 ± 4.69% on 5-HT2A. Besides, the inhibition at 10 µM was 4.83 ± 2.43% on 5-HT1A and 10.6 ± 4.75% at Mu opioid (MOR). For the same molecule, the concentration for half-maximal inhibition (IC50) on Rat sEH worked out at 1 nM; at Mouse sEH, 107 nM. The molecule further gave a solubility in “physchem” of 54.4 µM (≈ 27.5 µg/mL).

As usually defined, the half-life is the time needed for the level to fall by half in the phase considered. Usually microsomal CLint stands for the capacity of the preparation to metabolise the compound, expressed as a volume cleared per time. Read a high microsomal CLint as faster metabolism. As a reminder, the IC50 is the midpoint of a concentration-inhibition curve. Read a low IC50 as inhibition by little substance. As usually defined, the solubility is the dissolved amount per volume that the medium holds. Higher therefore signals much dissolved substance.
